Laboratory results from ChEMBL document CHEMBL5537126, “Advances in targeting Phosphodiesterase 1: From mechanisms to potential therapeutics” (Eur J Med Chem, 2024).
Blank lines part the entries; values can stand above or below the molecule they belong to.

Key:
[1] = Inhibition of PDE3 (unknown origin) by fluorescent based assay; parameters: species or system Homo sapiens
[2] = Inhibition of PDE1 (unknown origin); parameters: species or system Homo sapiens
[3] = target: cGMP-specific 3',5'-cyclic phosphodiesterase (Homo sapiens, UniProt O76074); test: Inhibition of PDE5 (unknown origin)
[4] = target: T1, Dual specificity calcium/calmodulin-dependent 3',5'-cyclic nucleotide phosphodiesterase 1B (Homo sapiens, UniProt Q01064); test: Inhibition of PDE1B (unknown origin) using [3H]-cGMP substrate incubated for 15 mins by liquid scintillation counting method
[5] = target: cGMP-dependent 3',5'-cyclic phosphodiesterase (Homo sapiens, UniProt O00408); test: Inhibition of full-length recombinant human PDE2A using [3H]-cGMP as substrate incubated for 10 mins by SPA assay
[6] = Metabolic stability in rat liver microsomes assessed as half life; assay type: ADME, Microsome
[7] = target: High affinity 3',5'-cyclic-AMP phosphodiesterase 7A (Homo sapiens, UniProt Q13946); test: Inhibition of PDE7A (unknown origin)
[8] = target: 3',5'-cyclic-AMP phosphodiesterase 4D (Homo sapiens, UniProt Q08499); test: Inhibition of PDE4D (unknown origin)
[9] = target: High affinity cAMP-specific and IBMX-insensitive 3',5'-cyclic phosphodiesterase 8A (Homo sapiens, UniProt O60658); test: Inhibition of full-length recombinant human PDE8A using [3H]-cAMP as substrate incubated for 10 mins by SPA assay
[10] = Inhibition of PDE9 (unknown origin) by fluorescent based assay; parameters: species or system Homo sapiens
[11] = Binding affinity to PDE1 (unknown origin) assessed as inhibition constant; parameters: species or system Homo sapiens
[12] = target: T1, Dual specificity calcium/calmodulin-dependent 3',5'-cyclic nucleotide phosphodiesterase 1B; test: Inhibition of PDE1B (unknown origin)
[13] = target: T2, Dual specificity calcium/calmodulin-dependent 3',5'-cyclic nucleotide phosphodiesterase 1A (Homo sapiens, UniProt P54750); test: Inhibition of PDE1A (unknown origin) using [3H]-cAMP as substrate incubated for 1 hr by SPA assay
[14] = target: cGMP-inhibited 3',5'-cyclic phosphodiesterase 3A (Homo sapiens, UniProt Q14432); test: Inhibition of PDE3A (unknown origin)
[15] = target: High affinity cGMP-specific 3',5'-cyclic phosphodiesterase 9A (Homo sapiens, UniProt O76083); test: Inhibition of PDE9A (unknown origin)
[16] = target: Phosphodiesterase 4 (Homo sapiens) (UniProt P27815+Q08499+Q07343+Q08493); test: Inhibition of PDE4 (unknown origin) at 10 uM relative to control; assay type: protein assay
[17] = target: Dual specificity calcium/calmodulin-dependent 3',5'-cyclic nucleotide phosphodiesterase 1C (Homo sapiens, UniProt Q14123); test: Inhibition of PDE1C (unknown origin) using [3H]-cAMP as substrate incubated for 1 hr by SPA assay
[18] = target: T1, Dual specificity calcium/calmodulin-dependent 3',5'-cyclic nucleotide phosphodiesterase 1B; test: Inhibition of PDE1B (unknown origin) using [3H]-cAMP as substrate incubated for 1 hr by SPA assay
[19] = target: cGMP-inhibited 3',5'-cyclic phosphodiesterase 3B (Homo sapiens, UniProt Q13370); test: Binding affinity to PDE3B (unknown origin) using [3H]cAMP as substrate assessed as inhibition constant incubated for 1 hrs by […] assay
[20] = target: T2, Dual specificity calcium/calmodulin-dependent 3',5'-cyclic nucleotide phosphodiesterase 1A; test: Inhibition of PDE1A3 (unknown origin)

T1 sequence (Q01064 whole entry): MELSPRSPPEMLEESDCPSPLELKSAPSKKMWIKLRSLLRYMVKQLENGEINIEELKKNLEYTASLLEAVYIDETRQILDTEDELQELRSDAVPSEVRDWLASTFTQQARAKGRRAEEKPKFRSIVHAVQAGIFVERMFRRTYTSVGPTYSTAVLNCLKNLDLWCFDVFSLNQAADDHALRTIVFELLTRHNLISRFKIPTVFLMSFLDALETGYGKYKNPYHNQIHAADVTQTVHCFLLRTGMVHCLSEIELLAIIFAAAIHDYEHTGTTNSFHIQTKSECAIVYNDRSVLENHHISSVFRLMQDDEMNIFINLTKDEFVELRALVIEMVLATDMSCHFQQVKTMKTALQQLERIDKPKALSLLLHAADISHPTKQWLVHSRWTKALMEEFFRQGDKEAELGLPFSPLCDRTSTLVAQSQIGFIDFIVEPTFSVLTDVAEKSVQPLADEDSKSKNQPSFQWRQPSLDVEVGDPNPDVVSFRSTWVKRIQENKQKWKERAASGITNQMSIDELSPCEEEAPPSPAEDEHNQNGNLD
T2 sequence (P54750 whole entry): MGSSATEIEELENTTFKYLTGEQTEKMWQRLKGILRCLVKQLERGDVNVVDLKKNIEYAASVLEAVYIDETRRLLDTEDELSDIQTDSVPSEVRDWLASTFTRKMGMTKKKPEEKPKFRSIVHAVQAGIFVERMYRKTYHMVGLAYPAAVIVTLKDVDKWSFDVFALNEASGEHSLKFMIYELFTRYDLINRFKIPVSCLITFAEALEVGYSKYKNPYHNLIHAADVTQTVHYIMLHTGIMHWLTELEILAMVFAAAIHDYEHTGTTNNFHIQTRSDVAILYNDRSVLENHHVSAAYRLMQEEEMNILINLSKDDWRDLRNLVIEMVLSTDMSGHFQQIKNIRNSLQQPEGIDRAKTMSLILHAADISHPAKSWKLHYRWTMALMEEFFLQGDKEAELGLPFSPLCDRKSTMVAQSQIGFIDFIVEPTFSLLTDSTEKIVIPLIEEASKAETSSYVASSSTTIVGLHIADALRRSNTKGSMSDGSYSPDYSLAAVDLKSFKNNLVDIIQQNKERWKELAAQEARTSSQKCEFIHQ
Chain of Dual specificity calcium/calmodulin-dependent 3',5'-cyclic nucleotide phosphodiesterase 1C (Q14123 whole entry): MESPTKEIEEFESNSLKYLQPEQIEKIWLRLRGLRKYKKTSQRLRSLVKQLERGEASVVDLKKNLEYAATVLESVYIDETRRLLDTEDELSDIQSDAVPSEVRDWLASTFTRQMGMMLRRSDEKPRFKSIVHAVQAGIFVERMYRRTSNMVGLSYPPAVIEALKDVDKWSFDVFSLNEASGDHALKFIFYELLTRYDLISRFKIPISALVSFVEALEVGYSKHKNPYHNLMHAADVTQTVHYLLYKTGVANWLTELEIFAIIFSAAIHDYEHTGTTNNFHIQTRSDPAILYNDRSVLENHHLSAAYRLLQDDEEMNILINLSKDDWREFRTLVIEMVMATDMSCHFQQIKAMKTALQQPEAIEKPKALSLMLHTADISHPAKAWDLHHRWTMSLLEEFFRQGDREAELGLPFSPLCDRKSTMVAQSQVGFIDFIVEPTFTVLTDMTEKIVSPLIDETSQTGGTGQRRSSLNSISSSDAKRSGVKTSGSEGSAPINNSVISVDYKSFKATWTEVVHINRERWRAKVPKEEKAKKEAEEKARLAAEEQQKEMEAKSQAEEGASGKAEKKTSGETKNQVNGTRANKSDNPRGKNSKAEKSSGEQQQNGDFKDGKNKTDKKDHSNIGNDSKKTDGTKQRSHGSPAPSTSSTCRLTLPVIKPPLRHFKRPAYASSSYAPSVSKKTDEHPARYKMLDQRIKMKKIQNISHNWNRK
Chain of High affinity 3',5'-cyclic-AMP phosphodiesterase 7A (Q13946 whole entry): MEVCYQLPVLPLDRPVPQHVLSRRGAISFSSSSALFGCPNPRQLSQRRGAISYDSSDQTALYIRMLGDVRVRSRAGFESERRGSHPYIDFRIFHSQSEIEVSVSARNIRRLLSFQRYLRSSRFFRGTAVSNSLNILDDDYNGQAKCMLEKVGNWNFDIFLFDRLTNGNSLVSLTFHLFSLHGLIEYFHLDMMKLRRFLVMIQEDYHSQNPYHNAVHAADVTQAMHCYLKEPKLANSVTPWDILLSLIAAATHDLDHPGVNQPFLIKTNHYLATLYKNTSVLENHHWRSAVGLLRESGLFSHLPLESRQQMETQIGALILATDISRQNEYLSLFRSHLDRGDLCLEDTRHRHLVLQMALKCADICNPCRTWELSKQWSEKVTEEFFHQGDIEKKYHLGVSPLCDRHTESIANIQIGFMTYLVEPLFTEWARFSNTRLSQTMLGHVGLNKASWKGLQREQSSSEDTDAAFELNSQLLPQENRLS
Chain of 3',5'-cyclic-AMP phosphodiesterase 4D (Q08499 whole entry): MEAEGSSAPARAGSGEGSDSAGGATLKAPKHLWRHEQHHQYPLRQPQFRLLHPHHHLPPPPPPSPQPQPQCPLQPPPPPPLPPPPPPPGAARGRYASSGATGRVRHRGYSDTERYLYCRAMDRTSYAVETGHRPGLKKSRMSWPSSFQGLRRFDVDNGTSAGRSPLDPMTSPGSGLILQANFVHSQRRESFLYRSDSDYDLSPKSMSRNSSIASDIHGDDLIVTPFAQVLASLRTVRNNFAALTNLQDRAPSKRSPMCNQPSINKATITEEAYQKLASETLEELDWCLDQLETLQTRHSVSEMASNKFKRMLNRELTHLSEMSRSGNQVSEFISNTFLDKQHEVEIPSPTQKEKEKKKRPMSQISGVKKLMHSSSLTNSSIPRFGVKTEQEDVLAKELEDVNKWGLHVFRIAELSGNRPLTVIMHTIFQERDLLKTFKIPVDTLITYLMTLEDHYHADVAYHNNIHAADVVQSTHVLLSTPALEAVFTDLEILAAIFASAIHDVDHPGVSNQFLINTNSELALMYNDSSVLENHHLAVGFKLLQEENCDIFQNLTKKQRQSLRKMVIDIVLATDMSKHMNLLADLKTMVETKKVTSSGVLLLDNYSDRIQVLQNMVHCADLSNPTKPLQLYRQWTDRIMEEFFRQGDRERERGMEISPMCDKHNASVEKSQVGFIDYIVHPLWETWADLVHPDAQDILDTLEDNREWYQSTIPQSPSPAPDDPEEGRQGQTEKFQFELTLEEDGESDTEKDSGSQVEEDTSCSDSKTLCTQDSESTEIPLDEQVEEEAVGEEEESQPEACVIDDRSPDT
Chain of High affinity cGMP-specific 3',5'-cyclic phosphodiesterase 9A (O76083 whole entry): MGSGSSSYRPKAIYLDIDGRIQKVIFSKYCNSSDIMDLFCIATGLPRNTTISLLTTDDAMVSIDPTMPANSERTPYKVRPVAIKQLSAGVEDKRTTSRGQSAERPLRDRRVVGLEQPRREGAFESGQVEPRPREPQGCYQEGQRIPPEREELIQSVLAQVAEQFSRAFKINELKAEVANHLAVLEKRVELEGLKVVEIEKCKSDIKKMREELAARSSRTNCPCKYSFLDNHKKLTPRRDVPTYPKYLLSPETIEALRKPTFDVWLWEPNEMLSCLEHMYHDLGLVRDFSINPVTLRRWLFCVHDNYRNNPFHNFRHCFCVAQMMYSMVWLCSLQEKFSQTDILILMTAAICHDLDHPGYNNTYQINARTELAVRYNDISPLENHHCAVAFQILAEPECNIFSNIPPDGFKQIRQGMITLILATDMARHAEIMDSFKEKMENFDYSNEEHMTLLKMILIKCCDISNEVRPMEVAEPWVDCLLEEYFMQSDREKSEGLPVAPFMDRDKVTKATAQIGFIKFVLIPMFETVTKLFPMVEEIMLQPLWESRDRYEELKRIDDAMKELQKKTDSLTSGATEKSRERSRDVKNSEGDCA
Chain of cGMP-inhibited 3',5'-cyclic phosphodiesterase 3B (Q13370 whole entry): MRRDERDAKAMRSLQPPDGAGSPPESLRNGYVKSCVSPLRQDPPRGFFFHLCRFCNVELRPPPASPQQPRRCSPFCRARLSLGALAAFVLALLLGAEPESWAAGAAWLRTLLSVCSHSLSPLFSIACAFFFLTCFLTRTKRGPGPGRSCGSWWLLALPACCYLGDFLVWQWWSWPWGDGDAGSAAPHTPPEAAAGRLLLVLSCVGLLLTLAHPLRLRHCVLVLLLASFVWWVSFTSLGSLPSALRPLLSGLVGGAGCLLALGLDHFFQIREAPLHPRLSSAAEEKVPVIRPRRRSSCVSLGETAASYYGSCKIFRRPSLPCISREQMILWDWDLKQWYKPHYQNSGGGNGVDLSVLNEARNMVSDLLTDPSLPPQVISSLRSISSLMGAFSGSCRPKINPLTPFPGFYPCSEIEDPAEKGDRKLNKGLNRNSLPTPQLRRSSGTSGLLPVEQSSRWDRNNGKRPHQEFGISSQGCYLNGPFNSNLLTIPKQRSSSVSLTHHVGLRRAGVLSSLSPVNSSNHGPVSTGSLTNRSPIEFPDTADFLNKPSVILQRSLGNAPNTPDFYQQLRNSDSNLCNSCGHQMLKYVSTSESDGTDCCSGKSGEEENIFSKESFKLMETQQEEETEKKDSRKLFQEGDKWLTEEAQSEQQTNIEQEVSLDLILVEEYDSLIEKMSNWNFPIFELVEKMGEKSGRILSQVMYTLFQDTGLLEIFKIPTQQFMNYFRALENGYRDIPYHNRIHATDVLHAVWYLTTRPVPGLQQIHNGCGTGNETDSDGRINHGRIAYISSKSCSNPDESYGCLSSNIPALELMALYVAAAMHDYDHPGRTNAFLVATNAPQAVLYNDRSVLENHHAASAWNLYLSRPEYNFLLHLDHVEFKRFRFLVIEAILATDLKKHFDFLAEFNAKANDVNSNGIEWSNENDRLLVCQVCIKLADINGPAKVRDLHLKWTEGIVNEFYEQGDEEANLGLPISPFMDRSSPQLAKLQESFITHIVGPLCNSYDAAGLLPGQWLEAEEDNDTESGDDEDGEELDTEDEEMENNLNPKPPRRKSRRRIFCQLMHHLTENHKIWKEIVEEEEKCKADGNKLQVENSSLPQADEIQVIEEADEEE

IC50 [1]: 240 nM | IC50 [2]: 8 µM | IC50 [3]: 10 µM
SMILES: COCc1nc2c([nH]1)c(=O)n(C)c(=O)n2CC(C)C

IC50 [4]: 21 nM | IC50 [5]: 8.52 µM | half-life [6]: 28.5 min | IC50 [7]: > 2.5 µM | IC50 [8]: 1500 nM | IC50 [9]: > 10 µM
SMILES: Cn1c(=O)c2c(Nc3ccc(F)cc3)n(Cc3ccc(S(C)(=O)=O)cc3)nc2n(CC2CC2)c1=O

IC50 [2]: 30 µM
SMILES: CCOC(=O)C1=C[C@]2(CC)CCCN3CCc4c(n1c1ccccc41)[C@@H]32 [VINPOCETINE]

IC50 [2]: 0.08 µM | IC50 [10]: 58 nM
SMILES: C[C@@H](Nc1nc2c(cnn2C2CCCC2)c(=O)[nH]1)c1ccc(Cl)cc1

IC50 [2]: 479 µM
SMILES: Cn1c(=O)c2c(ncn2C)n(C)c1=O [CAFFEINE]

Ki [11]: 0.058 nM
SMILES: CN1C(=O)c2c(nn(Cc3ccc(-c4cccc(F)n4)cc3)c2Nc2ccccc2)N2C1=N[C@@H]1CCC[C@@H]12 [LENRISPODUN PHOSPHATE]

IC50 [2]: 0.396 µM
SMILES: CCCc1nn(C)c2c(=O)[nH]c(-c3cc(S(=O)(=O)N4CCN(C)CC4)ccc3OCC)nc12

IC50 [12]: < 100 nM
SMILES: COc1ccc(Cn2c(=O)n3ncnc3c3cc(CN4CCCOCC4)sc32)cc1

IC50 [13]: 2 µM
SMILES: COCCOC(=O)C1=C(C)NC(C)=C(C(=O)OC(C)C)C1c1cccc([N+](=O)[O-])c1 (stereo not given) [NIMODIPINE]

IC50 [2]: 0.0029 µM | IC50 [14]: > 10 µM | half-life [6]: 15.8 min | IC50 [15]: > 10 µM | IC50 [7]: > 10 µM
SMILES: C[C@@H](Nc1nc2c(cnn2C(C)(C)C)c(=O)n1Cc1ccc(F)cc1)c1ccc(Cl)cc1

inhibition [16]: 27% | IC50 [13]: 4.66 µM | IC50 [17]: 573 nM | IC50 [18]: 2820 nM
SMILES: COc1ccc2c(N3C[C@@H](Cl)[C@@H]4OC[C@@H](OCc5ccccc5)[C@@H]43)ncnc2c1OC

SMILES: COc1cc2ncnc(N3C[C@@H](OO)[C@@H]4OC[C@@H](OC(C)=O)[C@@H]43)c2cc1OC
IC50 [17]: 2200 nM

Ki [11]: 3700 nM | Ki [19]: 35 µM | IC50 [3]: 6.5 µM
SMILES: CNc1ncnc2c1ncn2Cc1ccccc1F [BW-A78U]

IC50 [12]: 790 nM | IC50 [20]: 32 nM
SMILES: O=c1c2c(Cc3ccccc3)n[nH]c2c2cccnc2n1-c1ccccc1

IC50 [17]: 2400 nM
SMILES: COc1cc2ncnc(N3C[C@@H](Cl)[C@@H]4OC[C@@H](OC)[C@@H]43)c2cc1OC

IC50 [4]: 3.8 nM | half-life [6]: 4.5 min
SMILES: Cn1c(=O)c2c(Nc3ccccc3)n(Cc3ccc(-c4cccc(F)n4)cc3)nc2n(CC2CC2)c1=O
